From PubChem BioAssay (NCI) come the findings set out here.

Experiment in all cases: growth of human tumour cells (NCI), 48 h
Test [1] concerns SNB-19 CNS.
Test [2] relates to A498 renal.
Test [3] concerns U251 CNS.
In test [4] the test system is SK-MEL-2 melanoma.
For test [5], the system named is NCI-H226 lung.
The subject of test [6] is SF-295 CNS.
In test [7] the test system is SF-268 CNS.
Test [8] deals with IGROV1 ovarian.
The subject of test [9] is SNB-75 CNS.
Test [10] concerns TK-10 renal.

Several values for one entry are separate records, joined by “and”; a condition that tells them apart may be missing. Identical values can stand only once.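 These data come from cells grown in 96-well plates and exposed to compound for 48 hours at five concentrations. The concentration for 50% growth inhibition is given as GI50. TGI is the concentration that stops growth completely.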

As for `COc1ccccc1/C=C/C(=O)c1ccccc1`, the GI50 in [1] is 12.7 µM; in test [2], 16.3 µM; in test [3] it was 3.69 µM; in [4], 12 µM; in test [5] it was 13.3 µM; in test [6] it was 14.8 µM. Further, the GI50 was 13.1 µM in test [7], 2.2 µM in test [8], 13.1 µM in test [9] and 21.2 µM in [10]. For the same compound, the TGI is 26.4 µM in test [1]; 31 µM in test [2]; 15 µM in [3]; 26.4 µM in test [4]; 33.1 µM in test [5]; 30.9 µM in test [6]. Also, the TGI is 27 µM in test [7], 8.7 µM in test [8], 27.1 µM in test [9] and 36.5 µM in [10].

In the case of `COc1ccc(Cn2c3c(cc(OS(=O)(=O)C(F)(F)F)c2=O)Cc2ccccc2-3)cc1`, the GI50 was 23.7 µM in test [1]; > 100 µM in [2]; 6.55 µM in test [3]; 14.5 µM in test [4]; 37.7 µM in test [5]; 31.7 µM in test [6]. Besides, the GI50 in test [7] was 8.54 µM; in [8] it was 7.26 µM; in [9], > 100 µM; in test [10], 19.5 µM. The TGI was 50 µM and > 100 µM in [1]; > 100 µM in test [2]; 50 µM and > 100 µM in [3]; 50 µM and > 100 µM in [4]; 50 µM and > 100 µM in [5]; 50 µM and > 100 µM in test [6]. Moreover, the TGI is 50 µM and > 100 µM in [7]; 50 µM and > 100 µM in test [8]; > 100 µM in [9]; 50 µM and > 100 µM in test [10].

For the compound `CC1=C(C(=O)Nc2cccc(Cl)c2)C(c2ccccc2F)C(C(=O)Nc2cccc(Cl)c2)=C(C)N1`, the TGI is > 100 µM in test [1]; 38.6 µM in test [2]; 37.7 µM in [3]; 27.1 µM in test [4]; 26 µM in test [5]; 36.8 µM in [6]. In addition, the TGI in test [7] worked out at 36.8 µM; in [8], 47.3 µM; in test [9], 54.9 µM; in test [10], 68.2 µM.

Take `Nc1ccc(C(=O)CC(N)C(=O)O)cc1O` (centres undefined): the TGI in [1], in test [2], in [3], in [4], in test [5] and in [6] was > 100 µM throughout. The TGI in test [7], in [8], in [9] and in test [10] was > 100 µM each time.

Regarding `COc1cc(-c2cn(-c3ccc(Cl)c(Cl)c3)c(=O)n2C(C)=O)cc(OC)c1OC`, the GI50 in test [1] is 11.3 µM; in test [2], 16.6 µM; in [3], 8.86 µM; in test [4], 10.6 µM; in test [5], 7.96 µM; in test [6], 1.53 µM. In addition, the GI50 in test [7] is 6.92 µM; in [8], 5.34 µM; in [9], 9.64 µM; in test [10] it was 12.2 µM. Also, the TGI in test [1] came out at 33.2 µM; in [2], 32.1 µM; in test [3], 21.3 µM; in test [4] it was 25.3 µM; in test [5], 25.9 µM; in [6], 5.79 µM. The TGI in test [7] was 30 µM; in [8], 17.6 µM; in test [9], 33.8 µM; in [10] it was 31 µM.

Consider `Cc1cc(S(=O)(=O)NC#N)c(S/C(=N\Nc2ccc([N+](=O)[O-])cc2)c2ccc(Cl)cc2)cc1Cl`, for which the GI50 in test [1] is 25.2 µM; in test [3], 48.2 µM; in test [4], > 100 µM; in [5], 18.5 µM; in test [6], 22.7 µM; in test [7], 26 µM. Besides, the GI50 in test [8] is > 100 µM; in [9] it was 38.1 µM; in test [10], 25 µM. Also, the TGI is > 100 µM in test [1]; 2.3 µM in [2]; > 100 µM in test [3]; > 100 µM in [4]; 46.1 µM in test [5]; 65.5 µM in [6]. Moreover, the TGI in test [7], in [8], in test [9] and in [10] was > 100 µM in each case.

Regarding `COc1ccc(Cn2cc3c(c2)-c2oncc2CC3)cc1`, the GI50 was 9.05 µM in test [1]; 1.74 µM in test [2]; 4.43 µM in test [3]; 4.88 µM in test [4]; 16 µM in test [5]; 4.08 µM in [6]. The GI50 in test [7] was 8.19 µM; in [8], 4.56 µM; in test [9], 2.95 µM; in test [10] it was 8.76 µM. In addition, the TGI in test [1] is > 100 µM; in [2] it was 9.74 µM; in test [3], > 92 µM; in test [4] it was 22.3 µM; in [5], > 100 µM; in test [6], 35.9 µM. Besides, the TGI in [7] was > 100 µM; in test [8], > 100 µM; in [9] it was 40.5 µM; in test [10] it was 86.8 µM.

Take `NCCCCNc1ccc2c(=O)[nH][nH]c(=O)c2c1`: the TGI in test [1], in [2], in test [3], in test [4], in [5] and in test [6] was > 100 µM in each case. Besides, the TGI in test [7], in test [8], in test [9] and in [10] was > 100 µM in each case.

On to `CCN(CC)C(=S)SC`, for which the TGI in test [1], in test [2], in [3], in test [4], in test [5] and in test [6] was > 100 µM in each case. For the same compound, the TGI in test [7], in test [8], in [9] and in test [10] was > 100 µM in each case.
